Assay results taken from patent US20090029996A1, “Pyridazin-3(2H)-One Derivatives And Their Use As Pde4 Inhibitors” (priority 2004, published 2009).

biological target: PDE4 (Homo sapiens, UniProt Q07343); assay: PDE4 Assay Procedure ([3H]-cAMP SPA); type: biochemical; conditions: 15 nM [3H]-cAMP, 1 hour at room temperature, SPA beads; read-out: HPDE4B or IC50 PDE4
Method: Compounds to be tested were resuspended in DMSO at a stock concentration of 1 mM. […] These dilutions were done in 96-well plates. In some cases, plates containing diluted compounds were frozen before being assayed. In these cases, the plates were thawed at room temperature and stirred for 15 minutes.
Ten microliters of the diluted compounds were poured into a “low binding” assay plate. […] The reaction was initiated by adding ten microliters of a solution containing PDE4. The plate was then incubated under stirring for 1 hour at room temperature. After incubation the reaction was stopped with 50 microlitres of SPA beads, and the reaction was allowed to incubate for another 20 minutes at room temperature before measuring radioactivity using standard instrumentation.
The reaction mixture was prepared by adding 90 ml of H2O to 10 ml of 10× assay buffer (500 mM Tris pH 7.5, 83 mM MgCl2, 17 mM EGTA), and 40 microlitres 1 μCi/μL [3H]-cAMP. SPA beads solution was prepared by adding 500 mg to […] H2O for a final concentration of 20 mg/ml beads and 18 mM zinc sulphate.

Chain of PDE4 (Q07343 324-700 limits assumed): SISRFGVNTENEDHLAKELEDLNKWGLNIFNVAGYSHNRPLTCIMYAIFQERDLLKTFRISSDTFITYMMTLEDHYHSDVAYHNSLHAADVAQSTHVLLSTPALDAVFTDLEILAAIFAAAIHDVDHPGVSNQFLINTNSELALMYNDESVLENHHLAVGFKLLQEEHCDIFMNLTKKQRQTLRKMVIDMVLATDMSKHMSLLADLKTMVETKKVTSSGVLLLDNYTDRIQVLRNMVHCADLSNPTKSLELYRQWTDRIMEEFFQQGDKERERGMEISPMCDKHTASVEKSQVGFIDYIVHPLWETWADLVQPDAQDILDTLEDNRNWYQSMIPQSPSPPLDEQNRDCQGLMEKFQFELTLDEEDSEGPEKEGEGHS

Compound | IC50 [nM]
CCn1nc(-c2ccc(C)cc2)c(C(=O)OCOC(=O)C(C)(C)C)c(Nc2cccnc2)c1=O [Example 68, [(2,2-Dimethylpropanoyl)oxy]methyl 1-ethyl-3-(4-methylphenyl)-6-oxo-5-(pyridin-3-ylamino)-1,6-dihydropyridazine-4-carboxylate] | 5.7
CCn1nc(-c2ccccc2)c(C(=O)OCOC(=O)C(C)(C)C)c(Nc2cnccc2C)c1=O [Example 26, [(2,2-dimethylpropanoyl)oxy]methyl 1-ethyl-5-[(4-methylpyridin-3-yl)amino]-6-oxo-3-phenyl-1,6-dihydropyridazine-4-carboxylate] | 2.3
CCOC(=O)OC(C)OC(=O)c1c(-c2ccccc2)nn(CC)c(=O)c1Nc1cnccc1C (stereo not drawn) [Example 27, 1-[(Ethoxycarbonyl)oxy]ethyl 1-ethyl-5-[(4-methylpyridin-3-yl)amino]-6-oxo-3-phenyl-1,6-dihydropyridazine-4-carboxylate] | 9.1
CCn1nc(-c2ccccc2)c(C(=O)OCOC(=O)C(C)(C)C)c(Nc2cccnc2)c1=O [Example 23, [(2,2-Dimethylpropanoyl)oxy]methyl 1-ethyl-6-oxo-3-phenyl-5-(pyridin-3-ylamino)-1,6-dihydropyridazine-4-carboxylate] | 0.94
CCn1nc(-c2ccccc2)c(C(=O)OCc2oc(=O)oc2C)c(Nc2cnccc2C)c1=O [Example 142, (5-Methyl-2-oxo-1,3-dioxol-4-yl)methyl 1-ethyl-5-[(4-methylpyridin-3-yl)amino]-6-oxo-3-phenyl-1,6-dihydropyridazine-4-carboxylate] | 1.2
CCn1nc(-c2ccccc2)c(C(=O)OCC(=O)OCc2ccccc2)c(Nc2cccnc2)c1=O [Example 16, 2-(Benzyloxy)-2-oxoethyl 1-ethyl-6-oxo-3-phenyl-5-(pyridin-3-ylamino)-1,6-dihydropyridazine-4-carboxylate] | 0.22
CCn1nc(-c2cccc(C)c2)c(C(=O)OCOC(=O)C(C)(C)C)c(Nc2cccnc2)c1=O [Example 35, [(2,2-Dimethylpropanoyl)oxy]methyl 1-ethyl-3-(3-methylphenyl)-6-oxo-5-(pyridin-3-ylamino)-1,6-dihydropyridazine-4-carboxylate] | 2.2
CCn1nc(-c2ccccc2)c(C(=O)OC2OC(=O)c3ccccc32)c(Nc2cccnc2)c1=O (stereo not drawn) [Example 18, 3-Oxo-1,3-dihydro-2-benzofuran-1-yl 1-ethyl-6-oxo-3-phenyl-5-(pyridin-3-ylamino)-1,6-dihydropyridazine-4-carboxylate] | 2.1
CCn1nc(-c2ccccc2)c(C(=O)OCOC(=O)C(C)(C)C)c(Nc2cncc3ccccc23)c1=O [Example 31, [(2,2-Dimethylpropanoyl)oxy]methyl 1-ethyl-5-(isoquinolin-4-ylamino)-6-oxo-3-phenyl-1,6-dihydropyridazine-4-carboxylate] | 0.07
CCn1nc(-c2ccccc2)c(C(=O)OCOC(C)=O)c(Nc2cccnc2)c1=O [Example 19, (Acetyloxy)methyl 1-ethyl-6-oxo-3-phenyl-5-(pyridin-3-ylamino)-1,6-dihydropyridazine-4-carboxylate] | 11
CCn1nc(-c2ccccc2)c(C(=O)OCCl)c(Nc2cncc3ccccc23)c1=O [Example 164, Chloromethyl 1-ethyl-5-(isoquinolin-4-ylamino)-6-oxo-3-phenyl-1,6-dihydropyridazine-4-carboxylate] | 0.1
CCn1nc(-c2ccccc2)c(C(=O)OC(C)OC(=O)OC2CCCCC2)c(Nc2cnccc2C)c1=O (stereo not drawn) [Example 76, 1-{[(Cyclohexyloxy)carbonyl]oxy}ethyl 1-ethyl-5-[(4-methylpyridin-3-yl)amino]-6-oxo-3-phenyl-1,6-dihydropyridazine-4-carboxylate] | 4.6
CCOC(=O)COC(=O)c1c(-c2ccsc2)nn(CC)c(=O)c1Nc1cnccc1C [Example 122, 2-Ethoxy-2-oxoethyl 1-ethyl-5-[(4-methylpyridin-3-yl)amino]-6-oxo-3-(3-thienyl)-1,6-dihydropyridazine-4-carboxylate] | 3.4
CCn1nc(-c2ccccc2)c(C(=O)OC(C)OC(=O)OC2CCCCC2)c(Nc2cccnc2)c1=O (single isomer, unassigned; (-)) [Example 132, (−)-1-{[(Cyclohexyloxy)carbonyl]oxy}ethyl 1-ethyl-6-oxo-3-phenyl-5-(pyridin-3-ylamino)-1,6-dihydropyridazine-4-carboxylate] | 0.3
CCCC(=O)OCOC(=O)c1c(-c2ccccc2)nn(CC)c(=O)c1Nc1cccnc1 [Example 17, (Butyryloxy)methyl 1-ethyl-6-oxo-3-phenyl-5-(pyridin-3-ylamino)-1,6-dihydropyridazine-4-carboxylate] | 3.6
